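Five concentrations, 48 hours, 96-well plates. GI50 = concentration required for 50% inhibition of growth.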 Calls of active or inactive are those of the source. Rule as the data show it: active = GI50 up to about 1.1 µM and inactive = higher.
What was measured:
Assay in all cases: NCI tumour cell line growth inhibition, 48 h
HOP-92 = tested on: HOP-92
SF-295 = tested on: SF-295
NCI-H226 = tested on: NCI-H226
Malme-3M = tested on: Malme-3M
BT-549 = tested on: BT-549
HT-29 = tested on: HT-29
A498 = tested on: A498
IGROV-1 = tested on: IGROV-1
OVCAR-5 = tested on: OVCAR-5
NCI/ADR-RES = tested on: NCI/ADR-RES
NCI-H522 = tested on: NCI-H522
RXF 393 = tested on: RXF 393
HL-60 = tested on: HL-60
HCT-15 = tested on: HCT-15
HOP-62 = tested on: HOP-62
RPMI-8226 = tested on: RPMI-8226
UO-31 = tested on: UO-31
SNB-19 = tested on: SNB-19
LOX IMVI = tested on: LOX IMVI
Hs-578T = tested on: Hs-578T

SMILES | GI50 (HOP-92) | GI50 (SF-295) | GI50 (NCI-H226) | GI50 (Malme-3M) | GI50 (BT-549) | GI50 (HT-29) | GI50 (A498) | GI50 (IGROV-1) | GI50 (OVCAR-5) | GI50 (NCI/ADR-RES) | GI50 (NCI-H522) | GI50 (RXF 393) | GI50 (HL-60) | GI50 (HCT-15) [µM] | GI50 (HOP-62) | GI50 (RPMI-8226) | GI50 (UO-31) | GI50 (SNB-19) | GI50 (LOX IMVI) | GI50 (Hs-578T)
CCc1n[nH]c(=O)n1/N=C/c1ccc(C)cc1 | > 100 µM (inactive) | > 100 µM (inactive) | 70.8 µM (inactive) | > 100 µM (inactive) | > 100 µM (inactive) | 54.3 µM (inactive) | 79.6 µM (inactive) | 91 µM (inactive) | > 100 µM (inactive) | > 100 µM (inactive) | > 100 µM (inactive) | > 100 µM (inactive) | 1.37 µM (inactive) | > 100 | 37.7 µM (inactive) | 72.1 µM (inactive) | 64.9 µM (inactive) | > 100 µM (inactive) | 69.8 µM (inactive) | 3.84 µM (inactive)
CC(=O)OC(C)(C)/C=C/C(=O)[C@](C)(O)[C@H]1[C@H](O)C[C@@]2(C)[C@@H]3CC=C4[C@@H](C[C@H](O)C(=O)C4(C)C)[C@]3(C)C(=O)C[C@]12C | 0.0175 µM (active) | < 0.01 µM (active) | < 0.01 µM (active) | < 0.01 µM (active) | < 0.01 µM (active) | < 0.01 µM (active) | < 0.01 µM (active) | < 0.01 µM (active) | < 0.0246 µM (active) | 0.0112 µM (active) | < 0.01 µM (active) | < 0.01 µM (active) | < 0.01 µM (active) | < 0.01 | < 0.0111 µM (active) | < 0.01 µM (active) | < 0.01 µM (active) | < 0.0174 µM (active) | < 0.01 µM (active) | < 0.01 µM (active)
COc1ccc(C[C@@H]2OC3(C=CC(=O)C=C3)O[C@H]2Cc2ccc(OC)cc2)cc1 | 0.653 µM (active) | 2.99 µM (inactive) | 0.232 µM (active) | 1.51 µM (inactive) | 0.221 µM (active) | 0.766 µM (active) | 5.53 µM (inactive) | 0.317 µM (active) | 0.832 µM (active) | 0.822 µM (active) | 0.147 µM (active) | 0.277 µM (active) | 1.52 µM (inactive) | 0.255 | 1.59 µM (inactive) | 0.202 µM (active) | 0.29 µM (active) | 1.82 µM (inactive) | 0.172 µM (active) | 0.971 µM (active)
O=C1CCc2c3c(c4c([nH]c5ccccc54)c2CC1)C(=O)NC3=O | 18.6 µM (inactive) | 6.01 µM (inactive) | 3.32 µM (inactive) | 3.48 µM (inactive) | 7.46 µM (inactive) | 3.53 µM (inactive) | 2.22 µM (inactive) | 0.893 µM (active) | 34.1 µM (inactive) | 16.4 µM (inactive) | 0.766 µM (active) | 1.91 µM (inactive) | 0.671 µM (active) | 2.7 | 12.3 µM (inactive) | 3.38 µM (inactive) | 0.998 µM (active) | 3.94 µM (inactive) | 1.18 µM (inactive) | 2.08 µM (inactive)
Cc1nc2c(nc1C)C(=O)c1ccccc1C2=O | 18.1 µM (inactive) | 1.48 µM (inactive) | 4.9 µM (inactive) | 0.237 µM (active) | 1.35 µM (inactive) | 4.46 µM (inactive) | 3.74 µM (inactive) | 7.96 µM (inactive) | 4.97 µM (inactive) | 2.87 µM (inactive) | 3.54 µM (inactive) | 15.4 µM (inactive) | 3.98 µM (inactive) | 2.58 | 5.2 µM (inactive) | 11.1 µM (inactive) | 11.7 µM (inactive) | 5.37 µM (inactive) | 1.05 µM (active) | 2.14 µM (inactive)
Cc1cn([C@@H]2C[C@H](CO)[C@@H]2O)c(=O)[nH]c1=O | > 100 µM (inactive) | > 100 µM (inactive) | > 100 µM (inactive) | > 100 µM (inactive) | > 100 µM (inactive) | > 100 µM (inactive) | > 100 µM (inactive) | > 100 µM (inactive) | > 100 µM (inactive) | > 100 µM (inactive) | > 100 µM (inactive) | > 100 µM (inactive) | > 100 µM (inactive) | > 100 | > 100 µM (inactive) | > 100 µM (inactive) | > 100 µM (inactive) | – | > 100 µM (inactive) | > 100 µM (inactive)
O=C(C[n+]1ccccc1)N/N=C(\Cc1nc2ccc([N+](=O)[O-])cc2nc1O)C(=O)Nc1cc(Cl)c(Cl)cc1Cl | > 100 µM (inactive) | > 100 µM (inactive) | 50.5 µM (inactive) | > 100 µM (inactive) | > 100 µM (inactive) | > 100 µM (inactive) | > 100 µM (inactive) | > 100 µM (inactive) | > 100 µM (inactive) | 60.1 µM (inactive) | 61.8 µM (inactive) | > 100 µM (inactive) | > 100 µM (inactive) | > 100 | – | > 100 µM (inactive) | 50.4 µM (inactive) | > 100 µM (inactive) | 60.1 µM (inactive) | > 100 µM (inactive)
CC(=O)N(C(=O)CC(=O)NNCc1ccccc1Cl)c1ccc(Cl)cc1 | > 10 µM (inactive) | > 10 µM (inactive) | > 10 µM (inactive) | > 10 µM (inactive) | > 10 µM (inactive) | > 10 µM (inactive) | > 10 µM (inactive) | > 10 µM (inactive) | > 10 µM (inactive) | > 10 µM (inactive) | > 10 µM (inactive) | > 10 µM (inactive) | > 10 µM (inactive) | > 10 | > 10 µM (inactive) | > 10 µM (inactive) | > 10 µM (inactive) | > 10 µM (inactive) | > 10 µM (inactive) | > 10 µM (inactive)
CN(C)CCC(=O)N1C/C(=C\c2ccc(Cl)c(Cl)c2)C(=O)/C(=C/c2ccc(Cl)c(Cl)c2)C1 | 0.394 µM (active) | 0.274 µM (active) | 0.705 µM (active) | 0.64 µM (active) | 0.426 µM (active) | 0.188 µM (active) | 1.32 µM (inactive) | 0.434 µM (active) | 0.731 µM (active) | 0.147 µM (active) | 0.2 µM (active) | 0.269 µM (active) | 0.0435 µM (active) | 0.184 | 0.303 µM (active) | 0.074 µM (active) | 0.336 µM (active) | 0.287 µM (active) | 0.1 µM (active) | 0.257 µM (active)
COc1cc(/C=N\N(C)C)cc(/C=N/N(C)C)c1O | 6.14 µM (inactive) | 2.9 µM (inactive) | 15.8 µM (inactive) | 10.8 µM (inactive) | 13.4 µM (inactive) | 10.6 µM (inactive) | 45.6 µM (inactive) | – | – | 25.4 µM (inactive) | 65.9 µM (inactive) | 43.1 µM (inactive) | 9.71 µM (inactive) | 88.1 | 39.3 µM (inactive) | 19.6 µM (inactive) | 22 µM (inactive) | 30.6 µM (inactive) | 25.1 µM (inactive) | 3.53 µM (inactive)
CCOC(=O)C1=C(N)N2C(=N[C@H]3CCCC[C@@H]32)N=C1 | > 100 µM (inactive) | > 100 µM (inactive) | 73.6 µM (inactive) | > 100 µM (inactive) | > 100 µM (inactive) | > 100 µM (inactive) | > 100 µM (inactive) | > 100 µM (inactive) | > 100 µM (inactive) | > 100 µM (inactive) | > 100 µM (inactive) | > 100 µM (inactive) | > 100 µM (inactive) | > 100 | – | > 100 µM (inactive) | > 100 µM (inactive) | > 100 µM (inactive) | > 100 µM (inactive) | > 100 µM (inactive)
COc1ccc2c(c1)CC[C@@H]1C2CC[C@]2(C)OC(=O)CCC12 (some centres not stated) | 13 µM (inactive) | 18.3 µM (inactive) | 11.7 µM (inactive) | 15.7 µM (inactive) | 11.4 µM (inactive) | 19.8 µM (inactive) | 38.6 µM (inactive) | 23.6 µM (inactive) | 13.3 µM (inactive) | 14.9 µM (inactive) | 6.07 µM (inactive) | 12.7 µM (inactive) | > 100 µM (inactive) | 17.5 | 25 µM (inactive) | 5.77 µM (inactive) | 17.9 µM (inactive) | 17.4 µM (inactive) | 6.67 µM (inactive) | 14.4 µM (inactive)
CCOC(=O)c1cc2c([nH]1)C(=O)CC1=C2CCN1Cc1ccccc1 | 14.3 µM (inactive) | 18.5 µM (inactive) | 0.585 µM (active) | 5.65 µM (inactive) | 18.1 µM (inactive) | 16 µM (inactive) | 15.3 µM (inactive) | 17.9 µM (inactive) | – | 20.7 µM (inactive) | 17.9 µM (inactive) | 13.9 µM (inactive) | 7.4 µM (inactive) | 8.53 | – | 3.81 µM (inactive) | 15.3 µM (inactive) | 17.5 µM (inactive) | 13.3 µM (inactive) | 20.4 µM (inactive)
O=C1Oc2ccccc2C(=O)/C1=C/N1C(=O)/C(=C/c2ccc([N+](=O)[O-])cc2)SC1=S | 1.08 µM (active) | 17.7 µM (inactive) | 15.1 µM (inactive) | 36.2 µM (inactive) | 7.16 µM (inactive) | 32.6 µM (inactive) | 7.91 µM (inactive) | 32.3 µM (inactive) | 34.4 µM (inactive) | 23.7 µM (inactive) | 20.7 µM (inactive) | 25.7 µM (inactive) | 36.1 µM (inactive) | 19.1 | 18.2 µM (inactive) | 5.65 µM (inactive) | – | 21.9 µM (inactive) | 29.6 µM (inactive) | 6.59 µM (inactive)

Reference: ChEMBL document CHEMBL1201862, “PubChem BioAssay data set” (2004)
